Test results as given in patent US20230312550A1, “N-(2-(4-CYANOTHIAZOLIDIN-3-YL)-2-OXOETHYL)-QUINOLINE-4-CARBOXAMIDES” (AstraZeneca AB, priority 2020, published 2023).
Values after ≈ are worked out from the molar mass of the structure shown.

Key:
[1] = Metabolic stability in rat hepatocytes (rHep); conditions: n = 1 or geometric mean of n = 2-3
[2] = molecular target: human Fibroblast activation protein alpha (hFAP) (Homo sapiens (Human), UniProt Q12884); assay: hFAP inhibition assay (tight binders); assay type: biochemical; conditions: Ala-Pro-AMC 20 μM, n = 1 or geometric mean n = 2-6; further: hFAP 2.4 pM
Chain of human Fibroblast activation protein alpha (hFAP) (Q12884 38-760): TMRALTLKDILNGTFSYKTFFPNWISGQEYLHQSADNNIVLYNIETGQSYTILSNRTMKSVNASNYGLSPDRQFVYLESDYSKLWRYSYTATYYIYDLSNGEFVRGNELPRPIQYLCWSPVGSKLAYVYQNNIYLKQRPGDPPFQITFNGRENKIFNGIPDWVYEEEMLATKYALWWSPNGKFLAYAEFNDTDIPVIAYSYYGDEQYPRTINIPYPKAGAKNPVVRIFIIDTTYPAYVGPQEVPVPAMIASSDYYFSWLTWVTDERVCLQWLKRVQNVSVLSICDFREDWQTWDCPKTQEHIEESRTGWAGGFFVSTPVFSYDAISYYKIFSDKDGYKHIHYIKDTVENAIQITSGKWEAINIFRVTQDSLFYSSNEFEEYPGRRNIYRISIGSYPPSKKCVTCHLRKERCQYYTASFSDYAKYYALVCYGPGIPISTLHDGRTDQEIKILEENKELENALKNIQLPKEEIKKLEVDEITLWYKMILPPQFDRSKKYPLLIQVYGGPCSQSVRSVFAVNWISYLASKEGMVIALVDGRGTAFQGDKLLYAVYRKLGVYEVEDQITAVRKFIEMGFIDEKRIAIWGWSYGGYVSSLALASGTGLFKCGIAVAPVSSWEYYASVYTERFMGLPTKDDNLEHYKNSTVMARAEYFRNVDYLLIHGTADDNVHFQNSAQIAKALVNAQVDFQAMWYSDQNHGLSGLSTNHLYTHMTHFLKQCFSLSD
Description: The plates were read on a PHERAstar® reader with excitation 340 nm and emission 460 nm. Data were analyzed in Genedata Screener®. IC50 values were determined by plotting % inhibition versus log compound concentration and using a one site dose response model.

[3] = molecular target: T1, FAP (Homo sapiens (Human), UniProt Q12884); assay: FAP plasma inhibition assay, human plasma; assay type: biochemical; conditions: human plasma diluted 1:40, Ala-Pro-AMC 75 μM
Description: (§1) This assay was adapted from the method described in Example 237 for detection of FAP target engagement enzyme activity in plasma. Plasma (anticoagulant K2EDTA) was used as the enzyme source: Human plasma (Pooled from AZ Biobank), Mouse plasma (AZ AST Biobank), and Cynomolgus plasma (BioIVT, #NHP00PLK2FNN, lot CYN222895). 384-Well black fluotrack PS plates (Greiner 781076) were used. 20 μL diluted plasma (Cynomolgus and Human plasma dilution 1:40, Mouse plasma dilution 1:67) in buffer (PBS, 0.1% BSA) was added to 0.6 μL compounds (in DMSO). Compounds were tested using 10 CR, 3 fold dilution series from 500 nM FAC. Two replicates for each assay point were run on the same plate. A fluorescence blank read was taken before substrate addition. […] Plates were incubated for 40 min at rt in the dark. […] IC50 values were determined by plotting % inhibition versus log compound concentration.
Target sequence in this assay (Q12884 24-760): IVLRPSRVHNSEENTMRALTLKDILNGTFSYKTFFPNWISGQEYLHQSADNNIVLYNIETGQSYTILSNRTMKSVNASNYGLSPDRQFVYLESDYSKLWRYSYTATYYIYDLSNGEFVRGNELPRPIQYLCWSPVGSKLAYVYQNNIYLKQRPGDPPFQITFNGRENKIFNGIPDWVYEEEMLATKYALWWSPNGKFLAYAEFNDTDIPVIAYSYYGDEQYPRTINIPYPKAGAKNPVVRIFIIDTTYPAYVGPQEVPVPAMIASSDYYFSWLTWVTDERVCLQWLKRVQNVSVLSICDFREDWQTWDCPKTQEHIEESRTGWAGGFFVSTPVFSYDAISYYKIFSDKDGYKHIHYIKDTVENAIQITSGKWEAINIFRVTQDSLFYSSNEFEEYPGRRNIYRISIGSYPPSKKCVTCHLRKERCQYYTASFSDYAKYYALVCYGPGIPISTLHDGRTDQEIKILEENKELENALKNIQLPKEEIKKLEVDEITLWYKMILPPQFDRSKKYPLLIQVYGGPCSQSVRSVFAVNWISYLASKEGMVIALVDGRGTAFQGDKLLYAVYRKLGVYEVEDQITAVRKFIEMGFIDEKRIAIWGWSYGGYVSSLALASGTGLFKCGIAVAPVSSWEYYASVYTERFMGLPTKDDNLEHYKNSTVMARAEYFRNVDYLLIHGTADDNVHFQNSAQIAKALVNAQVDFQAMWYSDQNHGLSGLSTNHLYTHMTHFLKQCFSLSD

[4] = molecular target: Prolyl endopeptidase, Prolyl Oligopeptidase (hPREP) (Homo sapiens (Human), UniProt P48147); assay: hPrep inhibition assay; assay type: biochemical; conditions: hPREP 0.6 nM, Z-Gly-Pro-amino-methylcoumarin 50 μM; read-out: PREP IC50
Chain of Prolyl endopeptidase, Prolyl Oligopeptidase (hPREP) (P48147 whole entry): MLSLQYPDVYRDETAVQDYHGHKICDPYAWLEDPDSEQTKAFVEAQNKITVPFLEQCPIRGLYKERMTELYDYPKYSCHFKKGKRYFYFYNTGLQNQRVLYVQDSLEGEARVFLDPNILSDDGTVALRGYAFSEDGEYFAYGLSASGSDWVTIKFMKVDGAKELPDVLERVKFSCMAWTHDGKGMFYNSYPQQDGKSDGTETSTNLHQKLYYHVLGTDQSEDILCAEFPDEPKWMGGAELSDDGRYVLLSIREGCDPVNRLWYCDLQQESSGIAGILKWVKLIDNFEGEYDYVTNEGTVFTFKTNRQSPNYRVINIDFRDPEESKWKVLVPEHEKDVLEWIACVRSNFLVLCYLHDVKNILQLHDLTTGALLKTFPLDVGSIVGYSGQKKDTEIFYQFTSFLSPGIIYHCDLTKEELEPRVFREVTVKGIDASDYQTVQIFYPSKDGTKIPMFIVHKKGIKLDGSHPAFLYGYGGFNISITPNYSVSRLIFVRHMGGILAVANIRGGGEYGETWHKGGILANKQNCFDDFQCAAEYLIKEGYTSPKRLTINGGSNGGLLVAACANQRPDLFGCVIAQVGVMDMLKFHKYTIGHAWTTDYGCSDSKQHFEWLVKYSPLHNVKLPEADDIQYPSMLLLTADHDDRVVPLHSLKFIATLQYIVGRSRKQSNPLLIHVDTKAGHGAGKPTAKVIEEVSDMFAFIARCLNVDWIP
Method in brief: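 Recombinant human PREP at 0.6 nM final with Z-Gly-Pro-AMC substrate at 50 μM final in Tris-HCl pH 7.5, NaCl, Triton X-100, glutathione; 15 min rt preincubation then 20 min rt reaction in dark. AMC fluorescence (ex 340/em 460 nm); IC50 from one-site dose-response fit of % inhibition.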

[5] = Caco-2 cell permeability; conditions: human
Description: Caco-2 cell permeability was measured as described in Mol Pharm 2017, 14, 1601.

[6] = molecular target: hFAP (M39-A757) (Homo sapiens (Human), UniProt Q12884); assay: hFAP binding assay (surface plasmon resonance); conditions: SPR, 20° C.; for hFAP Binding assay k(off) / hFAP Binding assay k(on): single cycle kinetics; for Kd: n = 1 or geometric mean n = 2-4
Chain of hFAP (M39-A757) (Q12884 39-757): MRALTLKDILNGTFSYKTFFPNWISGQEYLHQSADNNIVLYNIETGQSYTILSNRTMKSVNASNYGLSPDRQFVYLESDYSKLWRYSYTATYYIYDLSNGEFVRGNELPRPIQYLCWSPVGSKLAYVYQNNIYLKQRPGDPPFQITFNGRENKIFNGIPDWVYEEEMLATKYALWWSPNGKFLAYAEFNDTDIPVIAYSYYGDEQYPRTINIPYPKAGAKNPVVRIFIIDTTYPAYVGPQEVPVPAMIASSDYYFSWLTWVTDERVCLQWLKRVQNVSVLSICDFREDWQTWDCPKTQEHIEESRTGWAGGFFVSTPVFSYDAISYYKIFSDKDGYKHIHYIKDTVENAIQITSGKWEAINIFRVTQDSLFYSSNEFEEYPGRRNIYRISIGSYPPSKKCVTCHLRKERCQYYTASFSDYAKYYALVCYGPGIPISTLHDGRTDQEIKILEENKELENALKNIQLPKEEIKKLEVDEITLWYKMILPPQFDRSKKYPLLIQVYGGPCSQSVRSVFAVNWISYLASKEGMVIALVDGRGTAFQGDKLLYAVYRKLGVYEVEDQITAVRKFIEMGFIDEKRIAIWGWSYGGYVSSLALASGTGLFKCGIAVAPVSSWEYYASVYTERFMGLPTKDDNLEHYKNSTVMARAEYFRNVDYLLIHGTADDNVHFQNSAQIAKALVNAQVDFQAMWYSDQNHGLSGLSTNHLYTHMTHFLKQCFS

[7] = Metabolic stability in human liver microsomes (HLM); conditions: human, HLM CLint, n = 1 or average of n = 2-3
Description: Metabolic stability in HLM was measured as described in J Comput Aided Mol Des 2015, 29, 795.

[8] = Kinetic solubility; conditions: kinetic from dmso stock, Solubility, kinetic solubility; n = 1 or average of n = 2-3
Description: Kinetic solubility was measured as described in Comput Aided Mol Des 2015, 29, 795.

[9] = molecular target: FAP (Mus musculus (Mouse), UniProt P97321); assay: FAP plasma inhibition assay, mouse plasma; assay type: biochemical; conditions: mouse plasma diluted 1:67, Ala-Pro-AMC 75 μM
Chain of FAP (Mus musculus (Mouse), UniProt P97321) (P97321 24-761): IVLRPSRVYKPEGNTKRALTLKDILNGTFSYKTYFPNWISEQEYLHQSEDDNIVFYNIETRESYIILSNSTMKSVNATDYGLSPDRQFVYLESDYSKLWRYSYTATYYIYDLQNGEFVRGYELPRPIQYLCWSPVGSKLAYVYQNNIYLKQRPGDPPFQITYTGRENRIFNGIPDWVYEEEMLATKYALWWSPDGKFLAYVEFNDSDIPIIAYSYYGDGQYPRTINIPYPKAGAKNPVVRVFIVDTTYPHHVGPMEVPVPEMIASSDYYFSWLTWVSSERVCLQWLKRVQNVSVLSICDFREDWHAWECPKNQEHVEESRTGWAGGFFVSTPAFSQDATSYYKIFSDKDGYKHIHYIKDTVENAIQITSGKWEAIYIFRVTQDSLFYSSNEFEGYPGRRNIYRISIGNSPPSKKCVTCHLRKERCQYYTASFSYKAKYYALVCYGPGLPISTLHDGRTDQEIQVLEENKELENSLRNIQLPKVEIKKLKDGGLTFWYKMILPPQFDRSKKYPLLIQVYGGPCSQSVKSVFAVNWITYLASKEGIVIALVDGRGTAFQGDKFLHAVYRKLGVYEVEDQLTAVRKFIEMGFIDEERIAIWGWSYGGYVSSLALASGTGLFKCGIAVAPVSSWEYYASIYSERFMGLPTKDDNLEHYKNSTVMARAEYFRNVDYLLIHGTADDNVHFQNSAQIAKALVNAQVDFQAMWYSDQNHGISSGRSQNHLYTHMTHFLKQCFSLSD
Description: as §1

[10] = molecular target: T1, FAP; assay: hFAP inhibition assay; assay type: biochemical; conditions: hFAP […], Ala-Pro-AMC 20 μM; n = 1 or geometric mean n = 2-3
Method in brief: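 Human FAP (0.48 nM) in 100 mM Tris HCl, 100 mM NaCl, 0.05% Chaps, pH 7.4 was preincubated 15 min at rt in the dark with compounds (10-point, 3-fold series from 50 μM). Substrate was added from a 40 μM solution, then 30 min at rt. Fluorescence read at ex 340/em 460 nm; IC50 from one-site dose-response fit of % inhibition.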
Target sequence in this assay (Q12884 38-760): as the sequence (Q12884 38-760) above

[11] = Metabolic stability in human hepatocytes (hHep); assay type: in vitro ADME; conditions: n = 1 or geometric mean of n = 2

SMILES | rHep CLint [1] [μL/min/1E6] | IC50 [2] [nM] | IC50 [3] [nM] | IC50 [4] [nM] | Papp A→B [5] [×10⁻⁶ cm/s] | Papp B→A [5] [×10⁻⁶ cm/s] | efflux ratio [5] | hFAP Binding assay k(off) [6] [s⁻¹] | hFAP Binding assay k(on) [6] [M⁻¹ s⁻¹] | Kd [6] [nM] | microsomal CLint [7] [µL/min/mg] | solubility [8] [µM] | IC50 [9] [nM] | IC50 [10] [nM] | hHep CLint [11] [μL/min/1E6] | Papp [5] [×10⁻⁶ cm/s]
C[C@H]1CCCN(c2ccc3nccc(C(=O)NCC(=O)N4CSC[C@H]4C#N)c3c2)C1=O (single isomer, unassigned) [Example 203, N-(2-((R)-4-Cyanothiazolidin-3-yl)-2-oxoethyl)-6-((R*)-3-methyl-2-oxopiperidin-1-yl)quinoline-4-carboxamide] | 2.9 | 0.26 | 0.4 | 3500 | 0.4 | 8 | 20 | 0.000063 | 440000 | 0.15 | 12 | 540 (≈ 236 µg/mL) | 0.5 | – | – | –
CC1(C)OCCN(c2ccc3nccc(C(=O)NCC(=O)N4CSC[C@H]4C#N)c3c2)C1=O [Example 16, (R)—N-(2-(4-Cyanothiazolidin-3-yl)-2-oxoethyl)-6-(2,2-dimethyl-3-oxomorpholino)quinoline-4-carboxamide] | <1 | 0.11 | 0.2 | 1600 | 0.16 | 4.2 | 26 | 0.000041 | 740000 | 0.054 | < 3 | 170 (≈ 77.1 µg/mL) | 0.4 | – | – | –
Cn1nccc1-c1ccc2nccc(C(=O)NCC(=O)N3CSC[C@H]3C#N)c2c1 [Example 174, (R)—N-(2-(4-Cyanothiazolidin-3-yl)-2-oxoethyl)-6-(1-methyl-1H-pyrazol-5-yl)quinoline-4-carboxamide] | 7.2 | 0.26 | 0.2 | 87 | 0.54 | 25 | 46 | 0.00024 | 1900000 | 0.13 | 12 | 800 (≈ 325 µg/mL) | 0.4 | 0.44 | – | –
CN1CCC(F)(c2ccc3nccc(C(=O)NCC(=O)N4CSC[C@H]4C#N)c3c2)CC1 [Example 195, (R)—N-(2-(4-Cyanothiazolidin-3-yl)-2-oxoethyl)-6-(4-fluoro-1-methyl-piperidin-4-yl)quinoline-4-carboxamide] | 1.8 | 0.39 | 0.9 | 1200 | 0.4 | 4.8 | 12 | 0.000061 | 190000 | 0.33 | < 3 | 830 (≈ 366 µg/mL) | 1.4 | – | – | –
C[C@@H]1CCCN(c2ccc3nccc(C(=O)NCC(=O)N4CSC[C@H]4C#N)c3c2)C1=O (single isomer, unassigned) [Example 204, N-(2-((R)-4-Cyanothiazolidin-3-yl)-2-oxoethyl)-6-((R*)-3-methyl-2-oxopiperidin-1-yl)quinoline-4-carboxamide] | 1.8 | 0.067 | 0.2 | 920 | 0.44 | 8.5 | 19 | 0.000058 | 850000 | 0.068 | 8 | 480 (≈ 210 µg/mL) | 0.3 | – | – | –
CO[C@@H]1CN(c2ccc3nccc(C(=O)NCC(=O)N4CSC[C@H]4C#N)c3c2)[C@H]1C [Example 30, N-(2-((R)-4-Cyanothiazolidin-3-yl)-2-oxoethyl)-6-((2S,3R)-3-methoxy-2-methylazetidin-1-yl)quinoline-4-carboxamide] | 7.2 | 0.12 | – | 510 | 3.1 | 30 | 9.6 | 0.00022 | 5200000 | 0.042 | < 3 | > 1000 | – | 0.28 | <1 | 15
COc1ccc(-c2ccc3nccc(C(=O)NCC(=O)N4CSC[C@H]4C#N)c3c2)cn1 [Example 178, (R)—N-(2-(4-Cyanothiazolidin-3-yl)-2-oxoethyl)-6-(6-methoxypyridin-3-yl)quinoline-4-carboxamide] | 7.2 | 0.042 | 0.1 | 120 | – | – | – | 0.00017 | 3100000 | 0.053 | 16 | 6 (≈ 2.6 µg/mL) | 0.1 | 0.2 | – | –
N#C[C@@H]1CSCN1C(=O)CNC(=O)c1ccnc2ccc(N3CCCCC3)cc12 [Example 32, (R)—N-(2-(4-Cyanothiazolidin-3-yl)-2-oxoethyl)-6-(piperidin-1-yl)quinoline-4-carboxamide] | 19 | 0.16 | – | 450 | 8.7 | 28 | 3.3 | 0.000029 | 1300000 | 0.022 | 40 | 240 (≈ 98.3 µg/mL) | – | 0.3 | 4.1 | –
CC(F)(F)C1CN(c2ccc3nccc(C(=O)NCC(=O)N4CSC[C@H]4C#N)c3c2)C1 [Example 147, (R)—N-(2-(4-Cyanothiazolidin-3-yl)-2-oxoethyl)-6-(3-(1,1-difluoroethyl)-azetidin-1-yl)quinoline-4-carboxamide] | 2.9 | 0.067 | 0.1 | 570 | 2.7 | 40 | 15 | 0.00012 | 2800000 | 0.045 | 17 | 40 (≈ 17.8 µg/mL) | 0.2 | – | – | –
